Assay results taken from ChEMBL document CHEMBL1201862, “PubChem BioAssay data set” (2004).
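These data come from cells grown in 96-well plates and exposed to compound for 48 hours at five concentrations. At the GI50, growth is halved.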 Calls of active or inactive are those of the source. Rule as the data show it: active = GI50 up to about 1.1 µM and inactive = higher.

What was measured:
Assay in all cases: NCI anticancer screen, dose series, 48 h
[1] = test system: SF-268
[2] = test system: IGROV-1
[3] = test system: SW-620
[4] = test system: 786-0
[5] = test system: SK-MEL-2
[6] = test system: CAKI-1
[7] = test system: RXF 393
[8] = test system: UACC-257
[9] = test system: MCF7
[10] = test system: Malme-3M
[11] = test system: MDA-MB-231
[12] = test system: SF-295
[13] = test system: MDA-N
[14] = test system: SK-MEL-28
[15] = test system: UO-31
[16] = test system: SN12C
[17] = test system: HT-29
[18] = test system: PC-3
[19] = test system: NCI/ADR-RES
[20] = test system: Hs-578T
[21] = test system: U-251
[22] = test system: SK-OV-3
[23] = test system: EKVX
[24] = test system: MDA-MB-435
[25] = test system: HCT-116
[26] = test system: LOX IMVI
[27] = test system: NCI-H522
[28] = test system: OVCAR-8
[29] = test system: HOP-62
[30] = test system: OVCAR-5
[31] = test system: SF-539
[32] = test system: KM12
[33] = test system: MOLT-4
[34] = test system: SK-MEL-5
[35] = test system: M14
[36] = test system: OVCAR-4
[37] = test system: K562
[38] = test system: NCI-H23
[39] = test system: A549
[40] = test system: NCI-H226
[41] = test system: HOP-92
[42] = test system: BT-549
[43] = test system: SNB-19
[44] = test system: TK-10
[45] = test system: SR
[46] = test system: NCI-H460
[47] = test system: HCC 2998
[48] = test system: HCT-15
[49] = test system: UACC-62
[50] = test system: COLO 205
[51] = test system: HL-60
[52] = test system: ACHN
[53] = test system: RPMI-8226
[54] = test system: CCRF-CEM
[55] = test system: SNB-75
[56] = test system: OVCAR-3
[57] = test system: DU-145

## O=C1O[C@H](c2ccc3c(c2)OCO3)[C@H]2CO[C@@H](c3ccc4c(c3)OCO4)[C@@H]12
[1]
  GI50: > 100 µM (inactive)
[2]
  GI50: > 100 µM (inactive)
[3]
  GI50: > 100 µM (inactive)
[4]
  GI50: > 100 µM (inactive)
[5]
  GI50: > 100 µM (inactive)
[6]
  GI50: 77.8 µM (inactive)
[7]
  GI50: > 100 µM (inactive)
[8]
  GI50: 54.6 µM (inactive)
[9]
  GI50: > 100 µM (inactive)
[10]
  GI50: > 100 µM (inactive)
[11]
  GI50: > 100 µM (inactive)
[12]
  GI50: 60.1 µM (inactive)
[13]
  GI50: > 100 µM (inactive)
[14]
  GI50: > 100 µM (inactive)
[15]
  GI50: > 100 µM (inactive)
[16]
  GI50: > 100 µM (inactive)
[17]
  GI50: 77.6 µM (inactive)
[18]
  GI50: > 100 µM (inactive)
[19]
  GI50: 74.1 µM (inactive)
[20]
  GI50: > 100 µM (inactive)
[21]
  GI50: > 100 µM (inactive)
[22]
  GI50: > 100 µM (inactive)
[23]
  GI50: > 100 µM (inactive)
[24]
  GI50: > 100 µM (inactive)
[25]
  GI50: > 100 µM (inactive)
[26]
  GI50: > 100 µM (inactive)
[27]
  GI50: 94.8 µM (inactive)
[28]
  GI50: > 100 µM (inactive)
[29]
  GI50: > 100 µM (inactive)
[30]
  GI50: > 100 µM (inactive)
[31]
  GI50: > 100 µM (inactive)
[32]
  GI50: > 100 µM (inactive)
[33]
  GI50: 43.5 µM (inactive)
[34]
  GI50: 42 µM (inactive)
[35]
  GI50: > 100 µM (inactive)
[36]
  GI50: 96.2 µM (inactive)
[37]
  GI50: 60.1 µM (inactive)
[38]
  GI50: 78.7 µM (inactive)
[39]
  GI50: > 100 µM (inactive)
[40]
  GI50: > 100 µM (inactive)
[41]
  GI50: > 100 µM (inactive)
[42]
  GI50: > 100 µM (inactive)
[43]
  GI50: > 100 µM (inactive)
[44]
  GI50: > 100 µM (inactive)
[45]
  GI50: 42.7 µM (inactive)
[46]
  GI50: > 100 µM (inactive)
[47]
  GI50: > 100 µM (inactive)
[48]
  GI50: > 100 µM
[49]
  GI50: 88.5 µM (inactive)
[50]
  GI50: 85.5 µM (inactive)
[51]
  GI50: > 100 µM (inactive)
[52]
  GI50: > 100 µM (inactive)
[53]
  GI50: 33.9 µM (inactive)

## COc1ccc(N2C(=O)c3cc(C)cnc3S2(=O)=O)cc1
[54]
  GI50: > 100 µM (inactive)
[1]
  GI50: > 100 µM (inactive)
[2]
  GI50: > 100 µM (inactive)
[3]
  GI50: > 100 µM (inactive)
[4]
  GI50: > 100 µM (inactive)
[5]
  GI50: > 100 µM (inactive)
[7]
  GI50: > 100 µM (inactive)
[10]
  GI50: > 100 µM (inactive)
[11]
  GI50: > 100 µM (inactive)
[12]
  GI50: > 100 µM (inactive)
[13]
  GI50: > 100 µM (inactive)
[14]
  GI50: > 100 µM (inactive)
[15]
  GI50: > 100 µM (inactive)
[16]
  GI50: > 100 µM (inactive)
[17]
  GI50: > 100 µM (inactive)
[18]
  GI50: > 100 µM (inactive)
[19]
  GI50: > 100 µM (inactive)
[20]
  GI50: > 100 µM (inactive)
[21]
  GI50: > 100 µM (inactive)
[22]
  GI50: > 100 µM (inactive)
[23]
  GI50: > 100 µM (inactive)
[24]
  GI50: > 100 µM (inactive)
[25]
  GI50: > 100 µM (inactive)
[26]
  GI50: > 100 µM (inactive)
[27]
  GI50: > 100 µM (inactive)
[28]
  GI50: > 100 µM (inactive)
[29]
  GI50: > 100 µM (inactive)
[30]
  GI50: > 100 µM (inactive)
[32]
  GI50: > 100 µM (inactive)
[33]
  GI50: > 100 µM (inactive)
[34]
  GI50: > 100 µM (inactive)
[36]
  GI50: > 100 µM (inactive)
[37]
  GI50: > 100 µM (inactive)
[38]
  GI50: > 100 µM (inactive)
[39]
  GI50: > 100 µM (inactive)
[40]
  GI50: > 100 µM (inactive)
[41]
  GI50: > 100 µM (inactive)
[42]
  GI50: > 100 µM (inactive)
[55]
  GI50: > 100 µM (inactive)
[43]
  GI50: > 100 µM (inactive)
[44]
  GI50: > 100 µM (inactive)
[45]
  GI50: > 100 µM (inactive)
[46]
  GI50: > 100 µM (inactive)
[47]
  GI50: > 100 µM (inactive)
[48]
  GI50: > 100 µM
[49]
  GI50: > 100 µM (inactive)
[50]
  GI50: > 100 µM (inactive)
[56]
  GI50: > 100 µM (inactive)
[51]
  GI50: > 100 µM (inactive)
[57]
  GI50: > 100 µM (inactive)
[52]
  GI50: > 100 µM (inactive)
[53]
  GI50: > 100 µM (inactive)
